Assay results reported in patent US20120093951A1 (priority 2009, published 2012).
Read-outs that look alike come from different tables or passages of the source.

How the values were obtained:
[1] = tested on: H1N1 subtype serum swine influenza virus; assay type: in vivo, yellow chickens; settings: 10 mg/day injected once per day for 7 days
[2] = tested on: H1N1 serum subtype of swine influenza virus (SIV); assay type: in vivo, yellow chickens; settings: 10 mg/day once per day for 11 days
[3] = tested on: swine influenza virus A/California/4/2009 and A/Hong Kong/xx/2008; assay type: cell-based, MDCK cells (Madin-Darby Canine Kidney Cells)

SMILES	Death Rate ([1]; 30 infected chickens)	Effective Rate ([1]; 30 infected chickens)	Number of Death ([1]; of 30 infected chickens)	Death Rate ([2]; 40 infected chickens)	Effective Rate ([2]; 40 infected chickens)	Number of Death ([2]; of 40 infected chickens)	Number of Detectable viruses/Total Number ([3]; Day 2, Tamiflu 10 μmol/ml)	Number of Detectable viruses/Total Number ([3]; Day 2, Tamiflu 100 μmol/ml)	Number of Detectable viruses/Total Number ([3]; Day 3, Tamiflu 10 μmol/ml)	Number of Detectable viruses/Total Number ([3]; Day 3, Tamiflu 100 μmol/ml)
CC(N)C12CC3CC(CC(C3)C1)C2 (stereo not shown) [Group C, rimantadine]	63.3%^	36.6%	19	62.5%^	37.5%	25	–	–	–	–
CCOC(=O)C1=C[C@@H](OC(CC)CC)[C@H](NC(C)=O)[C@@H](N)C1 [Tamiflu, Oseltamivir phosphate]	–	–	–	–	–	–	1/2	0/2	2/2	2/2
